Broadly, the inhibition is the relative decrease from the control value, in per cent.

Data on seven compounds can be found in ChEMBL document CHEMBL2007661, “Compounds: GSK PKIS; Assays: UNC Frye lab” (2012).

Where “and” joins values, the source holds several entries; their conditions need not be identical. Identical values can stand only once.

Assay [1] deals with T1, Inhibitor of nuclear factor kappa-B kinase subunit epsilon (Homo sapiens) (UniProt Q14164).
T1 sequence (whole entry): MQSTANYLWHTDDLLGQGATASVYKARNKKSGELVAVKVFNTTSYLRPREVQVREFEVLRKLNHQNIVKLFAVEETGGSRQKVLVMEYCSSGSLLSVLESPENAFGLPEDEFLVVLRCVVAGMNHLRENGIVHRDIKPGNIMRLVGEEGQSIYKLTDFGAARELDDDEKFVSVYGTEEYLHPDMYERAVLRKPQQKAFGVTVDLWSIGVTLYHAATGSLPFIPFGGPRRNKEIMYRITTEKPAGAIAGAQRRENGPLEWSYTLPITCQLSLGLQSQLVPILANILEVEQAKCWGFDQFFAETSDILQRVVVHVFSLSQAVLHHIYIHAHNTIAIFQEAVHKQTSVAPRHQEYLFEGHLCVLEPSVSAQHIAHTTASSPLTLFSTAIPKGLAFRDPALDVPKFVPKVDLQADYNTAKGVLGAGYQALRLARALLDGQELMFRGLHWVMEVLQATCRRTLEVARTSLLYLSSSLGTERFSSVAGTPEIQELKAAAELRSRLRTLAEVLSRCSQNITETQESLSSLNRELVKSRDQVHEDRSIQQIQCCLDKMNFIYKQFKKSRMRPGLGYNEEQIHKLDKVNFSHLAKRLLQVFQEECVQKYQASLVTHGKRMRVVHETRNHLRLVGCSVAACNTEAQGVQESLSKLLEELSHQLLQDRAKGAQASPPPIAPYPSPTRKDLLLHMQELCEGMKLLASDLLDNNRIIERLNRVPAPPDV
The following applies: at 1 µM.

The target in assay [2] is T2, Inhibitor of nuclear factor kappa-B kinase subunit beta (Homo sapiens) (UniProt O14920).
T2 sequence (whole entry): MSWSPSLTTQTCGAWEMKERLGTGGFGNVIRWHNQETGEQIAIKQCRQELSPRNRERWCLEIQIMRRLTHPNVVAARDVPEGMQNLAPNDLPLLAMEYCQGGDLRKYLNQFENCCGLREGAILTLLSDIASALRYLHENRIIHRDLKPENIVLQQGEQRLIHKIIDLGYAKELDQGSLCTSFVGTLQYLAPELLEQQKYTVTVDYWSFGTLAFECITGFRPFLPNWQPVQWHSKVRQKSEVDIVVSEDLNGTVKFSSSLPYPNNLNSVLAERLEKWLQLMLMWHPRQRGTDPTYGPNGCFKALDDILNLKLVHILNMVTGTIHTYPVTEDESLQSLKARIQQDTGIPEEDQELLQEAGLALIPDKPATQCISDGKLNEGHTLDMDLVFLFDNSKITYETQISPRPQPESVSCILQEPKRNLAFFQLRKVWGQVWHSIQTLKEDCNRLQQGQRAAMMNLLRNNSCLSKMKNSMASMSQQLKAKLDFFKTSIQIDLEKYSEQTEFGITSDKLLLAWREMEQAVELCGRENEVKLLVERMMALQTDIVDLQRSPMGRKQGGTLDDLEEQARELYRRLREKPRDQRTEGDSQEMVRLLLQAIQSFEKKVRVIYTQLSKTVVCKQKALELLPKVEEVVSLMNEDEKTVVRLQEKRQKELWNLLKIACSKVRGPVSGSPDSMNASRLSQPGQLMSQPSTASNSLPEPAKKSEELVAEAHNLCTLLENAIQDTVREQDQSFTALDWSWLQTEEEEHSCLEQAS
The following applies: at 1 µM.

Assay [3] has as its target T3, Tyrosine-protein kinase Mer (Homo sapiens) (UniProt Q12866).
T3 sequence (whole entry): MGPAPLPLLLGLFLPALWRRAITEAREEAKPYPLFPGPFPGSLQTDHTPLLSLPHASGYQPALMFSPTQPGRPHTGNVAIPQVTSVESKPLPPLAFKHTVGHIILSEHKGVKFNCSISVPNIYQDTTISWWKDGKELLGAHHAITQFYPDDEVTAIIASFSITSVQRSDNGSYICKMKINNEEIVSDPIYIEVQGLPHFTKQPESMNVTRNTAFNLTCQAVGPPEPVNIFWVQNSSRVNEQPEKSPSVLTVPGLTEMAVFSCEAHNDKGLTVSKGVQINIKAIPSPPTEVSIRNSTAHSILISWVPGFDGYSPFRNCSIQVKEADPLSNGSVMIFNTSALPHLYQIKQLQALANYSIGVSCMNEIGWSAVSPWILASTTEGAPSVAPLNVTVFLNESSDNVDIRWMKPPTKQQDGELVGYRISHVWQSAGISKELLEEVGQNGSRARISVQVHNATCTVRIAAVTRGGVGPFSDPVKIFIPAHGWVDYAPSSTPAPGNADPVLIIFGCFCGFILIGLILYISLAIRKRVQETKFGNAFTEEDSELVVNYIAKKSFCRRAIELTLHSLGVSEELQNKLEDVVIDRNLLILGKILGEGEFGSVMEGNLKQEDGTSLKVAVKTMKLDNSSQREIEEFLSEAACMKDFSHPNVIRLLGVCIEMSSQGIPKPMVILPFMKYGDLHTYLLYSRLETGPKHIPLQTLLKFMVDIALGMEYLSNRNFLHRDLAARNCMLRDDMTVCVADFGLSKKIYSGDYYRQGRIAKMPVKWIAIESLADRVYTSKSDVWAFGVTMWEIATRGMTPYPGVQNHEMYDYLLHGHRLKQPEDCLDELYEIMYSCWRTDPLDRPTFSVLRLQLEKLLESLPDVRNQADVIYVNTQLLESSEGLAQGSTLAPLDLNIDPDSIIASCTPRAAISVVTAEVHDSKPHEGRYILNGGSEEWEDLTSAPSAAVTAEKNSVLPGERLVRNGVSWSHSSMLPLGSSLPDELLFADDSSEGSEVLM
The following applies: at 10 µM.

Assay [4] addresses T4, Serine/threonine-protein kinase TBK1 (Homo sapiens) (UniProt Q9UHD2).
T4 sequence (whole entry): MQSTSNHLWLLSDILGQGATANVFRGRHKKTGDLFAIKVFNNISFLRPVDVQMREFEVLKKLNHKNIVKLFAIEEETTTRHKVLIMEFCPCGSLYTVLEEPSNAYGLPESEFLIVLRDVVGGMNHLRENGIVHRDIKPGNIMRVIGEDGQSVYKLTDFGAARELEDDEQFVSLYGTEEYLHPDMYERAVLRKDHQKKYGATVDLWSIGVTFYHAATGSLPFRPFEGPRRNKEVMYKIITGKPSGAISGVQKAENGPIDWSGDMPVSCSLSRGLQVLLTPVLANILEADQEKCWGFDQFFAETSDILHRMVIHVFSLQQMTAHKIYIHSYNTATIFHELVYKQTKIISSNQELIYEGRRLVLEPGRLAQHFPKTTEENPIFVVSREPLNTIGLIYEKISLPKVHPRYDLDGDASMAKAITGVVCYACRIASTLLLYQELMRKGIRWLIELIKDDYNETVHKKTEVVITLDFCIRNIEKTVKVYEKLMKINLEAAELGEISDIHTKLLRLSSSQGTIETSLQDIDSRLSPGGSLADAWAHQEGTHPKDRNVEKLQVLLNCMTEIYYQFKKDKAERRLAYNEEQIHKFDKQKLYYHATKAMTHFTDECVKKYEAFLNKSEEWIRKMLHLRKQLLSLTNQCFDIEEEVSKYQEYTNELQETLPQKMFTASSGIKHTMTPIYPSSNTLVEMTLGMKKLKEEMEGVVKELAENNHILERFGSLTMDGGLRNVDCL
The following applies: at 1 µM.

In assay [5] the target is T5, Inhibitor of nuclear factor kappa-B kinase subunit alpha (Homo sapiens) (UniProt O15111).
T5 sequence (whole entry): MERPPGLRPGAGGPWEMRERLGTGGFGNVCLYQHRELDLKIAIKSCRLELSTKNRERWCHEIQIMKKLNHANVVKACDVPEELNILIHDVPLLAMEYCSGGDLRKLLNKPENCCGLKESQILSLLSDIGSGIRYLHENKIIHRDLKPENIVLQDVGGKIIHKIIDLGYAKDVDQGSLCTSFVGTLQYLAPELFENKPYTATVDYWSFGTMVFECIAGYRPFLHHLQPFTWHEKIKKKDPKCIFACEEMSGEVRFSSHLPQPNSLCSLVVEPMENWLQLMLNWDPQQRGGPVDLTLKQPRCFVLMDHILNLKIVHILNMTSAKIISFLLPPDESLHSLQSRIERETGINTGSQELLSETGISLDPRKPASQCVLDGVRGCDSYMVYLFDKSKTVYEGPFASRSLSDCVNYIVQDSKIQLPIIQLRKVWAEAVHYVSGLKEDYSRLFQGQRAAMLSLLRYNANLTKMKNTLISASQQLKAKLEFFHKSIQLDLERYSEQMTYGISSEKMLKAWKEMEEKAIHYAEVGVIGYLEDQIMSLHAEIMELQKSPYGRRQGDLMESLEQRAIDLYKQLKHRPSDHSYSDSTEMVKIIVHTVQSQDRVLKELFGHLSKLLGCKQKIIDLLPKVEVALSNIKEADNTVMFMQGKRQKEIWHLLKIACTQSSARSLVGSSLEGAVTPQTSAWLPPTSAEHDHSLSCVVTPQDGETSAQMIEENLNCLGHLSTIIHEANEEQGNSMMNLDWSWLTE
The note with it: at 1 µM.

As for `Cc1cccc2c1NC(=O)/C2=N\Nc1ccc(S(N)(=O)=O)cc1`, the inhibition was 0% and 1% in assay [1]; -2% and -1% in assay [2]; 4% in assay [3]; 3% and 0% in assay [4].

`CCn1c(-c2nonc2N)nc2cnc(Oc3cccc(NC(=O)c4ccc(OCCN5CCOCC5)cc4)c3)cc21`: the inhibition was 45% and 46% in assay [1]; 3% in assay [2]; 10% in assay [3]; 12% in assay [4].

Turning to `CNC(=O)c1cncc(/C=C/c2c(Cl)cccc2Cl)c1`, the inhibition is 0% and 1% in assay [1]; -3% and -2% in assay [2]; 3% in assay [3]; 0% and -1% in assay [4].

`C[C@@H](Oc1cc(-n2cnc3ccc(OC4CCN(C)CC4)cc32)sc1C(N)=O)c1ccccc1Cl`: the inhibition is 1% and 5% in assay [1]; -1% and -2% in assay [2]; -2% in assay [3]; 7% and 3% in assay [4].

In the case of `NC(=O)c1cc(-c2ccncc2)cc(-c2ccccc2)c1N`, the inhibition in assay [1] is 14%; in assay [2] it was -1% and 0%; in assay [3], -1%; in assay [4], 10% and 13%.

With `CCS(=O)(=O)c1ccc(OC)c(Nc2ncc(-c3cccc(F)c3)o2)c1`, the inhibition was 0% and 2% in assay [1]; 2% and 17% in assay [5]; 73% in assay [3]; 8% and 7% in assay [4].

Take `NC(=O)c1cc(-c2ccc(F)cc2)cc(-c2ccncc2)c1N`: the inhibition in assay [1] is 2% and 0%; in assay [2], 2% and 1%; in assay [3], 22%; in assay [4], 16% and 21%.
